Earlier results, collected in US10894960B2, “Compositions and methods for nucleic acid transfer” (Children's Hospital Medical Center, priority 2016, dated 2021).

Columns and labels:
SUR1 = SUR1 (Homo sapiens, UniProt Q09428); details: Target SUR1, gene symbol ABCC8
TOP2 beta = TOP2 beta (Homo sapiens, UniProt Q02880); details: Target TOP2 beta, gene symbol TOP2B
PARP-1 = PARP-1 (Homo sapiens, UniProt P09874); details: Target PARP-1, gene symbol PARP1
NR3A = NR3A (Homo sapiens, UniProt Q8TCU5); details: Target NR3A, gene symbol GRIN3A
Chain of NR3A (Q8TCU5 24-1115, species assumed, other chains not shown): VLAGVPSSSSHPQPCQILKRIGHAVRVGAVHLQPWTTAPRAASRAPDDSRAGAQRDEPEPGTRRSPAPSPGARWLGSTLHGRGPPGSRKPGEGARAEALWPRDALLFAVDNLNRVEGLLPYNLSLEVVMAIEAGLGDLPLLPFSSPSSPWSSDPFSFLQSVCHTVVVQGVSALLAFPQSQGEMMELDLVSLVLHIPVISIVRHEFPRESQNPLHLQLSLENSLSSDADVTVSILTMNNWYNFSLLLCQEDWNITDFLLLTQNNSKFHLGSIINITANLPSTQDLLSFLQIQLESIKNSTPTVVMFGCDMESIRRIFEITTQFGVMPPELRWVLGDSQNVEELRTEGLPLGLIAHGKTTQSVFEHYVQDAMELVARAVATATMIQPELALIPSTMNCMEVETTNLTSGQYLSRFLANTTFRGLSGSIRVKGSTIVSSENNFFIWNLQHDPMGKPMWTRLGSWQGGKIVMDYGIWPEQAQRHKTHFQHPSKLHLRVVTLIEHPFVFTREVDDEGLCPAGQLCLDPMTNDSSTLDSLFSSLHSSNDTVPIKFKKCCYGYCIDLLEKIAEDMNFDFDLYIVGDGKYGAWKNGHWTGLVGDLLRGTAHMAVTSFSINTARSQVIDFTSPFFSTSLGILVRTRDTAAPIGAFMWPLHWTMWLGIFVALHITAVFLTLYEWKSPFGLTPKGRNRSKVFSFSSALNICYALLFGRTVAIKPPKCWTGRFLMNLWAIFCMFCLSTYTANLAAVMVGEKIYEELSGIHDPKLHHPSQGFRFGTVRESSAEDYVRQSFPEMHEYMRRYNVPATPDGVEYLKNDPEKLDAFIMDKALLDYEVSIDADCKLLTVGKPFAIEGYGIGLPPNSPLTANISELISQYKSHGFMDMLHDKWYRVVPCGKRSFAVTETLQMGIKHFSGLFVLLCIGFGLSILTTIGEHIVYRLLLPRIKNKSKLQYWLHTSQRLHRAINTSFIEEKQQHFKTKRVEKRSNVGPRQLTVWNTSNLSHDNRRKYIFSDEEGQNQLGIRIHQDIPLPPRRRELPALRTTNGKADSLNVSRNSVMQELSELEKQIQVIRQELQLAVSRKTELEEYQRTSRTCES

Chain of TOP2 beta (Q02880 whole entry): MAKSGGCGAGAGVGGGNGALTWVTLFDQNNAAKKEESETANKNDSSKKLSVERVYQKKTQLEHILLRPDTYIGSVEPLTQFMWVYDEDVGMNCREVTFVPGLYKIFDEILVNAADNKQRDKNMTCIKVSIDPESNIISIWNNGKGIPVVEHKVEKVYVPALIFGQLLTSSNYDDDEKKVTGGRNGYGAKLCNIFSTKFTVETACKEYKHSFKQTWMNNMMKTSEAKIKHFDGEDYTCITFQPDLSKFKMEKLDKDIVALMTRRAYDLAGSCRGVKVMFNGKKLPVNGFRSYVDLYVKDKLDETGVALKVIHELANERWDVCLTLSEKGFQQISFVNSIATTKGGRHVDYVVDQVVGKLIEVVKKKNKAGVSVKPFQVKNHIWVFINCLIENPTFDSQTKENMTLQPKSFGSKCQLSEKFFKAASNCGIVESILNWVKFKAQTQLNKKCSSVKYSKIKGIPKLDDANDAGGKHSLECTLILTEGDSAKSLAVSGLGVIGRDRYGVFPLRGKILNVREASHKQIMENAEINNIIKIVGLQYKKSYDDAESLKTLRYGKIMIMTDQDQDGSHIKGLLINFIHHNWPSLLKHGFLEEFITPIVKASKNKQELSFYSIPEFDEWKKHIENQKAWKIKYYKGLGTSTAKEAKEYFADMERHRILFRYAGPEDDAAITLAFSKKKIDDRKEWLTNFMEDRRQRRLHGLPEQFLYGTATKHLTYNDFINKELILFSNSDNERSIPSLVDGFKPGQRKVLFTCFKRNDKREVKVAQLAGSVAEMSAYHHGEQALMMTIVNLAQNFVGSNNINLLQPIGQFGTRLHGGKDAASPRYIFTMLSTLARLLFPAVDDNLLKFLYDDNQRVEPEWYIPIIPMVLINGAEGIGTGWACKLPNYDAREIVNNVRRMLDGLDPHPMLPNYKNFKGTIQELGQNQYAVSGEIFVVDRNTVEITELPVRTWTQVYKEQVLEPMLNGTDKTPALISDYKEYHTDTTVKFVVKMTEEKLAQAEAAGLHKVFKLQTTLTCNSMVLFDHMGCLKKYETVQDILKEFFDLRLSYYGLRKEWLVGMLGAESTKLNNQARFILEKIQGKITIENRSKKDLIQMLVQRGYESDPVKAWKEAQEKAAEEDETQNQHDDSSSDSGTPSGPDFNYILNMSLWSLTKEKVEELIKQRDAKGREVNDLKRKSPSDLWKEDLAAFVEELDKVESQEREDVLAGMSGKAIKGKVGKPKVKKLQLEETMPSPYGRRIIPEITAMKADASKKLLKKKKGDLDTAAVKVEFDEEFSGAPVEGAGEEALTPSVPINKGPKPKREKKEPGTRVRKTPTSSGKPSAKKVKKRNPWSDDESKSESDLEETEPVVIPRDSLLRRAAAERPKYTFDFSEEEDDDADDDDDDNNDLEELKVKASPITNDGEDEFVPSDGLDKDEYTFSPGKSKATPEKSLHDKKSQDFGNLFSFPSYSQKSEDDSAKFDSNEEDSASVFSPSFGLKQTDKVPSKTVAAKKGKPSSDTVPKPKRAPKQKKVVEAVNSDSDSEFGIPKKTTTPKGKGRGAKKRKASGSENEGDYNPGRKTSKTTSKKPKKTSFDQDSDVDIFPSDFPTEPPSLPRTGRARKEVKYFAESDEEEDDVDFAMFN
Chain of SUR1 (Q09428 whole entry, species assumed): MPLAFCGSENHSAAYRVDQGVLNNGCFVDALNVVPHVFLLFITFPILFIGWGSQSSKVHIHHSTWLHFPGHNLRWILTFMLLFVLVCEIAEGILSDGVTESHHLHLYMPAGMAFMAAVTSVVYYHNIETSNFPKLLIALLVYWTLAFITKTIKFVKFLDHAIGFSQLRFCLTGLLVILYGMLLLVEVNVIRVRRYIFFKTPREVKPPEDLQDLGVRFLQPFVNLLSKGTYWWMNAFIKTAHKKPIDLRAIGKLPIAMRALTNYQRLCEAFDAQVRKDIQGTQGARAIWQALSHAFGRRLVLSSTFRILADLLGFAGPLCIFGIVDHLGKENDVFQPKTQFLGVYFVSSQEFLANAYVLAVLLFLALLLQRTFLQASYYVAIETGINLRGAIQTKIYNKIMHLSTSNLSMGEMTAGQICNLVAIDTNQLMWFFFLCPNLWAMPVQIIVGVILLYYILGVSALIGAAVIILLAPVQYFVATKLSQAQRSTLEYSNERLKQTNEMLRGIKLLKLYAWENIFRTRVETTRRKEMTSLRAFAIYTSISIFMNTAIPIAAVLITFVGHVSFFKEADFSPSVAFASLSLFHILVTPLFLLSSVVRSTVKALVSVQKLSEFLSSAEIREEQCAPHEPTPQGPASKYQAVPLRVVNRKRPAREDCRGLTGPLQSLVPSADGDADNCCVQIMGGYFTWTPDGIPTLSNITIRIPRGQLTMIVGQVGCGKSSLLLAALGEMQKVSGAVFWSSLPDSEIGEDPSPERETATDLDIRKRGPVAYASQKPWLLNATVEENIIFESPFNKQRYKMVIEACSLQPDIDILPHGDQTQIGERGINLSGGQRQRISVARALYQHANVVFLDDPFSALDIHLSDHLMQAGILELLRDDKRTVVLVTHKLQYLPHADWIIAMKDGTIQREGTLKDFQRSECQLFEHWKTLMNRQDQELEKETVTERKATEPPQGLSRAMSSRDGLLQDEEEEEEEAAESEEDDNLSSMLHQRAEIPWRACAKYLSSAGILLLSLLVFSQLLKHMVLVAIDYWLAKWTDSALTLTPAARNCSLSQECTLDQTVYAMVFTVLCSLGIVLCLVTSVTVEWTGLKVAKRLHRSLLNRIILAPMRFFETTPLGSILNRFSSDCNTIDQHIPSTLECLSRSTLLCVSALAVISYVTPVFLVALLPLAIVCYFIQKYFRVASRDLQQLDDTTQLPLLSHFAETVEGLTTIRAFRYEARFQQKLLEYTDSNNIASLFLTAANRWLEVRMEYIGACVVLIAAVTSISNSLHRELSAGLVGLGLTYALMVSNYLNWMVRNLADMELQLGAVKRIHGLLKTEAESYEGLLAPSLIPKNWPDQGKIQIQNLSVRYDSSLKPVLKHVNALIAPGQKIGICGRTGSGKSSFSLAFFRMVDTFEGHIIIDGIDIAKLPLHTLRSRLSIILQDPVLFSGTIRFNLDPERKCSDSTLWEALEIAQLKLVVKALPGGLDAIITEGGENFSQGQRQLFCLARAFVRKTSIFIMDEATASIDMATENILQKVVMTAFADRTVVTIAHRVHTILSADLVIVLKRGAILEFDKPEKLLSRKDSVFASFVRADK
Chain of SUR1 (Q14654 whole entry partner, species assumed): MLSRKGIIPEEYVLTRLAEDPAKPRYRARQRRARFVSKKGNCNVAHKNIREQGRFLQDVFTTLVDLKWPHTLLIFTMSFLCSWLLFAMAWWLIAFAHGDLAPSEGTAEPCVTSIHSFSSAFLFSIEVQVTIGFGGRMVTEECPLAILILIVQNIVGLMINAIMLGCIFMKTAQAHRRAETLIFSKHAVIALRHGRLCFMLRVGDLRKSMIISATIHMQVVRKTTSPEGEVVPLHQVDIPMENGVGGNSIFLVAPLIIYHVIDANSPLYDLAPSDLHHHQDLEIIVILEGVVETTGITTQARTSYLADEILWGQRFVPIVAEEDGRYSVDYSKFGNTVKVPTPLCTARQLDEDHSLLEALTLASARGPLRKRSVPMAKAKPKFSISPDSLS

SMILES	Effect (SUR1)	Effect (TOP2 beta)	other results
CCOc1cc(CC(=O)N[C@@H](CC(C)C)c2ccccc2N2CCCCC2)ccc1C(=O)O (racemic) [(R/S)-Repaglinide]	Inhibition		
CC(=O)c1ccc(S(=O)(=O)NC(=O)NC2CCCCC2)cc1 [Acetohexamide]	Activation		
C[C@@H]1O[C@@H](O[C@H]2C[C@](O)(C(=O)CO)Cc3c(O)c4c(c(O)c32)C(=O)c2ccccc2C4=O)[C@H](I)[C@H](O)[C@H]1O [Annamycin]		Inhibition	
O=[As]O[As]=O (stereo not shown) [As(,2)O(,3)]			Effect (PARP-1): Inhibition
CC1=NS(=O)(=O)c2cc(Cl)ccc2N1 [Diazoxide]	Activation		
CO[C@@H]1[C@@H](N)[C@@H](O[C@H]2[C@H](Oc3cccc4c(O)c5c(=O)oc6ccc(C)c7c(=O)oc(c34)c5c67)O[C@H](C)[C@H](O)[C@]2(C)O)O[C@H](C)[C@@H]1O [Elsamitrucin]		Inhibition	
O=C(Nc1ccc2ncccc2c1)C(=O)c1cn(Cc2ccc(Cl)cc2)c2ccccc12 [Entasobulin]		Inhibition	
COc1cc([C@@H]2c3cc4c(cc3[C@@H](O[C@@H]3O[C@@H]5CO[C@@H](C)O[C@H]5[C@H](O)[C@H]3O)[C@H]3COC(=O)[C@H]23)OCO4)cc(OC)c1O [Etoposide]		Inhibition	
CCC1=C(C)CN(C(=O)NCCc2ccc(S(=O)(=O)NC(=O)N[C@H]3CC[C@H](C)CC3)cc2)C1=O [Glimepiride]	Inhibition		
Cc1cnc(NCCCN(C)C)c2c1[nH]c1ccc3cc(O)ccc3c12 [Intoplicine]		Inhibition	
CNC1(c2ccccc2Cl)CCCCC1=O (stereo not shown) [Ketamine]			Effect (NR3A): Inhibition
CC12CC3CC(C)(C1)CC(N)(C3)C2 [Memantine]			Effect (NR3A): Inhibition
COc1ccc2c(c[n+](C)c3c4cc5c(cc4ccc23)OCO5)c1O [NK109]		Inhibition	
COc1cc([C@@H]2c3cc4c(cc3[C@@H](CCN(C)CCN(C)C)[C@H]3COC(=O)[C@H]23)OCO4)cc(OC)c1O [TOP53]		Inhibition	
C1CCC2(C1)C1CN(CC3CC3)CC2CN(CC2CC2)C1 [Tedisamil]	Inhibition		
COc1cc([C@@H]2c3cc4c(cc3[C@@H](O[C@@H]3O[C@@H]5CO[C@@H](c6cccs6)O[C@H]5[C@H](O)[C@H]3O)[C@H]3COC(=O)[C@H]23)OCO4)cc(OC)c1O [Teniposide]		Inhibition	
